Assay results reported in paper PMC6348446 (Journal of Medicinal Chemistry, 2018).

Columns and labels:
EOL-1 cells = assay: Cell viability/proliferation (cellular ATP, CellTiterGlo) in EOL-1; type: cell-based; conditions: Homo sapiens, EOL1; EOL-1, text; read-out: EC50 (cytotoxicity, cell viability)
A-204 cells = assay: Cell viability/proliferation (cellular ATP, CellTiterGlo) in A-204; type: cell-based; conditions: Homo sapiens, A204; A-204 (printed A-402); read-out: EC50 (cytotoxicity, cell viability)
Experimental: A-204 cells (1 × 10^3) were seeded per well of 384-well plates. After overnight incubation, compounds were added to the cells at logarithmic dose series using the HP digital dispenser D300 (Tecan), normalizing for added DMSO. 1 day and 8 days after seeding cellular ATP content was measured using CellTiterGlo (Promega). Measurements after 8 days were divided by the measurement after 1 day (i.e., the T0 plate) to derive fold proliferation. Data were analyzed with GraphPad Prism software to obtain EC50 values.

[1] = Intrinsic clearance in mouse liver microsomes; type: in vitro ADME; conditions: 0.5 µM compound
Experimental: (§1) compounds against known CHI values. The CHI value of test compounds was then calculated according to their retention time.
(§2) Test compounds were prepared as 0.25 mM solutions in 50:50 acetonitrile:water and analysed by reversed-phase HPLC-UV (wavelength 254 nm) using a ACE Excel 3 SuperC18, 3 µm, 50 x 2.1 mm column with a gradient of aqueous phase (10 mM ammonium acetate, pH 7.4) and mobile phase (acetonitrile).
(§3) Intrinsic clearance (Cli) experiments
(§4) Test compound (0.5 µM) was incubated with female CD1 mouse or human (mixed gender) liver microsomes (Xenotech LLCTM; 0.5 mg/mL 50mM potassium phosphate buffer, pH7.4) and the reaction initiated with addition of excess NADPH (8 mg/mL 50 mM potassium phosphate buffer, pH7.4). Immediately, at time zero, then at 3, 6, 9, 15 and 30 minutes an aliquot (50 µL) of the incubation mixture was removed and mixed with acetonitrile (100 µL) to stop the reaction. Internal standard was added to all samples, the samples centrifuged to sediment precipitated protein and the plates then sealed prior to […] analysis using […]
(§5) a Xevo TQ-S Micro (Waters corporation, USA).
(§6) XLfit (IDBS, UK) was used to calculate the exponential decay and consequently the rate constant (k) from the ratio of peak area of test compound to internal standard at each timepoint. The rate of intrinsic clearance (CLi) of each test compound was then calculated using the following calculation: […]

[2] = Intrinsic clearance in human liver microsomes; type: in vitro ADME; conditions: 0.5 µM compound
Experimental: as §1, §2, §3, §4, §5, §6

Row | Microsomal stability (intrinsic clearance), Mouse [1] | Microsomal stability (intrinsic clearance), Human [2] | SMILES | EC50 (EOL-1 cells) | EC50 (A-204 cells)
1 | – | – | COc1cc(-c2cn(C)c(=O)c3cnccc23)cc(OC)c1CN1CCN(CCCCCOc2cc(-c3scnc3C)ccc2CNC(=O)[C@@H]2C[C@@H](O)CN2C(=O)[C@@H](NC(=O)C2(F)CC2)C(C)(C)C)CC1 [Compound 51, (2S,4R)-N-(2-((5-(4-(2,6-Dimethoxy-4-(2-methyl-1-oxo-1,2-dihydro-2,7-naphthyridin-4-yl)benzyl)piperazin-1-yl)pentyl)oxy)-4-(4-methylthiazol-5-yl)benzyl)-1-((S)-2-(1-fluorocyclopropane-1-carboxamido)-3,3-dimethylbutanoyl)-4-hydroxypyrrolidine-2-carboxamide] | 3 nM | 40 nM
2 | 2.4 mL/min/g liver | 8.1 mL/min/g liver | COc1cc(-c2cn(C)c(=O)c3cnccc23)cc(OC)c1CN1CCN(CCCCCOc2cc(-c3scnc3C)ccc2CNC(=O)[C@@H]2C[C@H](O)CN2C(=O)[C@@H](NC(=O)C2(F)CC2)C(C)(C)C)CC1 [cisVZ185] | – | –
